For nine compounds, IC50 and minimal effective concentration results are on record in patent EP4574817A1 (LoQus23 Therapeutics Limited, priority 2023, dated 2025).

In general, IC50 refers to the concentration at which inhibition is half-maximal. The low end stands for higher potency, the high end for lower potency.

SMILES strings stand for the structures.

For test [1], the target named is T1, MutSβ (Homo sapiens, UniProt P20585+P43246).
T1 construct: purchased AMRI
Put plainly: MutSβ ADP Glo Assay. To be noted: 20nM MutSβ, 30nM CAG DNA, 25 µM ATP, 2 hours at room temperature. It counts as biochemical. As to the method: Biological Example A - MutSβ Assay
• MutSβ (supplied by AMRI) stored at -70°C • ADP Glo Kinase Assay Kit (Promega: V9102) stored at -20°C • ATP (supplied within the ADP Glo Kit) stored at -20°C • 1M KCI (Sigma Aldrich: P9333) stored at 2-8°C • 1 M HEPES pH 7.5 (Gibco: M15630-080) stored at 2-8°C • 1M MgCl2 (Sigma Aldrich: M1028-100mL) stored at 2-8°C • Tween-20 (Sigma Aldrich: P1379) (10% solution) stored at 2-8°C • 500mM DTT (Sigma Aldrich: 10197777001) stored at -20°C • CAG loop DNA for MutSβ (made in house) stored at -20°C • MilliQ water stored at room temperature
• 1. Prepare the buffer fresh each day • 2. Take the enzyme from the freezer, thaw in room temperature water and centrifuge at 13,000 rpm for 10 minutes at 2-8C, then make up enzyme and ATP stocks • 3. Quality Control the multidrop head to a %CV of <2% • 4. Add 3µL of 33.34nM MutSβ and 50.01nM CAG looped DNA solution […] to each well in columns 1 and 3-23 of the plate • 5. Pre-incubate the MutSβ and buffer mix for 10 minutes with the compounds • 6. Wash the multidrop head through with MilliQ water (for at least 30 seconds) • 7. Add 3µL of MutSβ Assay buffer (without enzyme) to columns 2 and 24 for the vehicle controls • 8. Wash the multidrop head through with MilliQ water (for at least 30 seconds) • 9. Add 2µL of 62.5µM ATP to each well of the whole plate, then wash with MilliQ water (for a minimum of 30 seconds) • 10. Centrifuge plate for 1 minute at 1000 rpm • 11. Incubate for 2 hours at room temperature • 12. Add 5µL of ADP Glo reagent to each well of the whole plate and wash the multidrop head with MilliQ water (for a minimum of 30 seconds) • 13. Incubate for 40 minutes at room temperature (minimum requirement) • 14. Add 10µL of Kinase Detection Reagent to each well of the whole plate • 15. Wash the multidrop head with MilliQ water more than 1 minute and then dry • 16. Remove the head and put the cover back on for overnight storage • 17. Incubate for 30 minutes at room temperature (minimum requirement) • 18. Read on a microplate reader
For orientation: ADP-Glo first removes unused ATP, then detects ADP through luciferase.

In test [2] the test system is U20S-IC6 cells. Description: Lo-Q platform assay (CAG repeat expansion in a clonal cell line with tetracycline-regulated exon 1 HTT ~100 CAG / nanoluc). It is filed as cell-based. To be noted: 336 h, 2-week assay with tetracycline pulsing, read-out: Minimum effective concentration (MEC). The text has this:
The cell line that was used in the assay below was generated as follows:
The pcDNA™4/TO vector contains two tetracycline operator 2 (TetO2) sites within the human cytomegalovirus immediate-early (CMV) promoter for tetracycline regulated expression of your gene of interest (Yao et al., 1998). The TetO2 sequences serve as binding sites for four Tet repressor molecules (comprising two Tet repressor homodimers) and confer tetracycline-responsiveness to the gene of interest. In the absence of tetracycline, expression of your gene of interest is repressed by the binding of Tet repressor homodimers to the TetO2 sequences. Addition of tetracycline to the cells de-represses the hybrid CMV/TetO2 promoter in pcDNA™4/TO and allows expression of your gene of interest. The pcDNA™6/TR regulatory plasmid is designed for use with the T-REx™ System for tetracycline-regulated expression of the gene of interest in mammalian cells. (www.lifetechnologies.com).
The expression sequence comprises exon 1 huntingtin with ~100 pure CAG repeats, a P2A self-cleaving peptide and a nanoluc sequence followed by a polyA signal. Full plasmid sequence is indicated (Seq ID NO:3). The plasmid contains sequences for ampicillin (bacterial propagation) and zeocin (mammalian cell lines) resistance.
The U-2 OS cell line (purchased from LGC standards, ATCC) is derived from a moderately differentiated sarcoma from the tibia of an adolescent person. Karyotyping has shown that although there are a lot of chromosomal abnormalities the tumour suppressor genes p53 and pRb are still fully functional in the U2OS cell line.
Routine culture of the adherent cells in non-PDL plastic ware in a humidified 37°C incubator with 5% CO2. Cells were maintained in McCoy's 5A (modified) medium with GlutaMAX supplement (Life Technologies 3660-021) and tetracycline-free FBS (Clontech 631106). Maintenance medium for the clonal cell lines expressing Tet repressor and exon 1 HTT/nanoluc constructs were additionally supplemented with zeocin to 100 ug/ml and blasticidin to 1.25 ug/ml. Cells were passaged at 70-80% confluence once or twice a week, either to a split ratio or defined seeding density using DPBS and TrypLE express enzyme (1x, no phenol red, Life technologies 12604-039) was used to dissociate the cells. Cells were frozen with Cell Banker (AMSBIO 11891) or with medium plus 10% DMSO and stored in liquid nitrogen vapour phase.
Stable, clonal cell lines (e.g. 1C6) are leveraged either identify potential druggable targets, and to assess the effectiveness of therapeutic compounds against a Huntington's disease, by way of quantifying CAG repeats expansion rates.
• Place a vial of the cell line U20S-IC6 (1-2×10^6 cells/mL), produced as described above, in a water bath at 37°C for 30 s. Once thawed, quickly transfer the cells into a 15 mL falcon tube containing 9 mL of McCoys 5A media, supplemented with 10% Tet-free FBS. • Pellet the cells by centrifugation at 300 x g for 5 m and discard the supernatant. • Resuspend the cell pellet in 10 mL fresh media and transfer to a sterile T75 culture flask. • Inspect the culture after 24 h and maintain the cells below 80% confluency, typically passaging every 3-4 days.
The Lo-Q platform has been optimised to run as a 2-week assay, following the standard processes detailed in the schematic in Figure 1A.
• Cell seeding for Lo-Q platform assays should be initiated on Mondays (am) to ensure Tetracycline pulsing can be maintained every other day. • The Friday prior to initiating any Lo-Q platform assay ensure there are sufficient cells in culture to seed the required number of assay plates. If required, passage the cells, otherwise perform a media change to McCoys 5A, 10% Tet-free FBS, 1.25 µg/mL Blasticidin®, and 100 µg/mL Zeocin®. • On the Monday morning, aspirate the media from the required number of culture flasks containing U20S-IC6 cells and wash with 2 mL PBS. • Aspirate the PBS and add 2 mL 0.25% Trypsin EDTA. […]

T1 sequence (P43246 whole entry): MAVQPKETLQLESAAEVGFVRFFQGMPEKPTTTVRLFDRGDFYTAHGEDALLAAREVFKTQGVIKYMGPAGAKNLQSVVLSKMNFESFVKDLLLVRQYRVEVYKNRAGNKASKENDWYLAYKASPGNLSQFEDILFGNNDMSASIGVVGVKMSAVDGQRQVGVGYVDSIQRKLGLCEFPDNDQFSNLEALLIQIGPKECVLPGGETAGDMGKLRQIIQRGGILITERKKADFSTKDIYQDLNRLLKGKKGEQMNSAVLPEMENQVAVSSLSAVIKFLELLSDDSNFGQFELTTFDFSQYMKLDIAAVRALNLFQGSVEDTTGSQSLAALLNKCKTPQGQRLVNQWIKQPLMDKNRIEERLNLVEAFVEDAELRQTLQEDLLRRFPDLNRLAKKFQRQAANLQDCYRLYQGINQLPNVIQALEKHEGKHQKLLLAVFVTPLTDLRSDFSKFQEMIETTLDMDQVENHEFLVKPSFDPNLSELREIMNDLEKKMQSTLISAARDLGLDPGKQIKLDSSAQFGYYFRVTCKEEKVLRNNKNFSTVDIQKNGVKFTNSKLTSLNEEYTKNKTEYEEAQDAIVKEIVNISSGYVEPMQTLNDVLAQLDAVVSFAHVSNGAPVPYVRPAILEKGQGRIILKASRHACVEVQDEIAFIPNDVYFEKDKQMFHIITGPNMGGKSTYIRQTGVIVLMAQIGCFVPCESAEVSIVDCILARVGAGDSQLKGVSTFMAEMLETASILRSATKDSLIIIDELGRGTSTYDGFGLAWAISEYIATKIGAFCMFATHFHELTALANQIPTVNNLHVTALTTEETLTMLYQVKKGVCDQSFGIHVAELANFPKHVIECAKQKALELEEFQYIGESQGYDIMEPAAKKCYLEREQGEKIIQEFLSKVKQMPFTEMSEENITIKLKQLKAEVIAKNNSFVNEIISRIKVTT
T1 sequence (P20585 whole entry): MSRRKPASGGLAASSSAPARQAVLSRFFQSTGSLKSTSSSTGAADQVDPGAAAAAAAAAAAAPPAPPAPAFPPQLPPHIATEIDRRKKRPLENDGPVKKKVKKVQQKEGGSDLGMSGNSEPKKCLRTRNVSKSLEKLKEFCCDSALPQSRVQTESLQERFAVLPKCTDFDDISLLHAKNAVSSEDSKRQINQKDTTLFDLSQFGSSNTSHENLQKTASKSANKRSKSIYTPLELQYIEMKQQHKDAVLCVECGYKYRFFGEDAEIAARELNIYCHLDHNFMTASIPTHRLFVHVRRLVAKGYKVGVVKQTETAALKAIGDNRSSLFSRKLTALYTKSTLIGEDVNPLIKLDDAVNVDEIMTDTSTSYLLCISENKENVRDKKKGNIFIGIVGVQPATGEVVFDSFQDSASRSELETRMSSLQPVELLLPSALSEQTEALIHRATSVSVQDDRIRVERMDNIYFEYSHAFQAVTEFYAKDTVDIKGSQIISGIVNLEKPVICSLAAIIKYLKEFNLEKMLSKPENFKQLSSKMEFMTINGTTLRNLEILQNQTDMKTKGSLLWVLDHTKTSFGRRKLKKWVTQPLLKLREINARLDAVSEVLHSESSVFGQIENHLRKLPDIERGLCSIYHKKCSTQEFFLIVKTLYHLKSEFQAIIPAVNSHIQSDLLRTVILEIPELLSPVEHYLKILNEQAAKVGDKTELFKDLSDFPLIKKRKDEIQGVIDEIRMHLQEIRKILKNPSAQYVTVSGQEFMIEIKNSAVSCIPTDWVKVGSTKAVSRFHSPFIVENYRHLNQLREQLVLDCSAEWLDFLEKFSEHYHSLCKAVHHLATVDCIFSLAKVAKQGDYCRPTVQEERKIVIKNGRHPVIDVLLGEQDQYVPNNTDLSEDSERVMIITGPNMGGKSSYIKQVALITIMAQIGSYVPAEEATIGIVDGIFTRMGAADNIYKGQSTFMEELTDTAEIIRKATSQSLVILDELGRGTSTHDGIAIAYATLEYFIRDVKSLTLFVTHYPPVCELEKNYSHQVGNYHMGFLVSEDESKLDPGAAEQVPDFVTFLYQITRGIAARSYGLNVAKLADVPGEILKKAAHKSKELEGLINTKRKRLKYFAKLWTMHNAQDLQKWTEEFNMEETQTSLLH

For `CCN(C)S(=O)(=O)OCC(=O)Nc1nc(C)c(Cc2ccc(C)cc2)s1` [Example 39, 2-((4-methyl-5-(4-methylbenzyl)thiazol-2-yl)amino)-2-oxoethyl ethyl(methyl)sulfamate], in test [1], the IC50 is 1000 to 10000 nM. The minimal effective concentration in test [2] is 1 to 5 µM.
The corresponding values for `CCNS(=O)(=O)OCC(=O)Nc1nc(C)c(Cc2ccc(C)cc2)s1` [Example 15, 2-((4-methyl-5-(4-methylbenzyl)thiazol-2-yl)amino)-2-oxoethyl ethylsulfamate] are 1000 to 10000 nM and 0.5 to 1 µM.
Compound `CNS(=O)(=O)OCC(=O)Nc1nc(C)c(Cc2cccc(Br)c2)s1` [Example 10, 2-((5-(3-bromobenzyl)-4-methylthiazol-2-yl)amino)-2-oxoethyl methylsulfamate] displayed an IC50 in test [1] of at most 500 nM. Besides, the minimal effective concentration in test [2] was 0.1 to 0.5 µM.
The corresponding values for `CCNS(=O)(=O)OCC(=O)Nc1nc(C)c(Cc2cccc(Cl)c2)s1` [Example 46, 2-((5-(3-chlorobenzyl)-4-methylthiazol-2-yl)amino)-2-oxoethyl ethylsulfamate] are at most 500 nM and at most 0.1 µM.
Compound `CNS(=O)(=O)OCC(=O)Nc1nc(C)c(Cc2ccc(Cl)c(Cl)c2)s1` [Example 12, 2-((5-(3,4-dichlorobenzyl)-4-methylthiazol-2-yl)amino)-2-oxoethyl methylsulfamate] yielded an IC50 in test [1] of at most 500 nM. Also, the minimal effective concentration in test [2] lay within 0.5 to 1 µM.
On the same counts, the results for `CNS(=O)(=O)OCC(=O)N(C)c1nc(C)c(Cc2cccc(Cl)c2)s1` [Example 1, 2-((5-(3-chlorobenzyl)-4-methylthiazol-2-yl)(methyl)amino)-2-oxoethyl methylsulfamate] are at most 500 nM and at most 0.1 µM.
The corresponding values for `CNS(=O)(=O)OCC(=O)Nc1nc(C)c(Cc2ccc(F)c(F)c2)s1` [Example 14, 2-((5-(3,4-difluorobenzyl)-4-methylthiazol-2-yl)amino)-2-oxoethyl methylsulfamate] are 1000 to 10000 nM and 0.1 to 0.5 µM.
On the same counts, the results for `CNS(=O)(=O)OCC(=O)Nc1nc(C)c(Cc2cccc(F)c2)s1` [Example 27, 2-((5-(3-fluorobenzyl)-4-methylthiazol-2-yl)amino)-2-oxoethyl methylsulfamate] are 1000 to 10000 nM and 0.1 to 0.5 µM.
For the compound `CNS(=O)(=O)OCC(=O)Nc1nc(C)c(Cc2cccc(Cl)c2)s1` [Example 19, 2-((5-(3-chlorobenzyl)-4-methylthiazol-2-yl)amino)-2-oxoethyl methylsulfamate], the IC50 in test [1] fell in the range of 500 to 1000 nM. Besides, the minimal effective concentration in test [2] is at most 0.1 µM.
